Measured values published in article PMC8596838, “Xylose‐Configured Cyclophellitols as Selective Inhibitors for Glucocerebrosidase” (Chembiochem, 2021).

Molecular target: T1, rhGBA (recombinant human GBA, Imiglucerase) (Homo sapiens, UniProt P04062, R534H)
T1 construct: purchased Sanofi Genzyme (Cambridge, MA, USA)
T1 sequence (P04062 40-536 R534H): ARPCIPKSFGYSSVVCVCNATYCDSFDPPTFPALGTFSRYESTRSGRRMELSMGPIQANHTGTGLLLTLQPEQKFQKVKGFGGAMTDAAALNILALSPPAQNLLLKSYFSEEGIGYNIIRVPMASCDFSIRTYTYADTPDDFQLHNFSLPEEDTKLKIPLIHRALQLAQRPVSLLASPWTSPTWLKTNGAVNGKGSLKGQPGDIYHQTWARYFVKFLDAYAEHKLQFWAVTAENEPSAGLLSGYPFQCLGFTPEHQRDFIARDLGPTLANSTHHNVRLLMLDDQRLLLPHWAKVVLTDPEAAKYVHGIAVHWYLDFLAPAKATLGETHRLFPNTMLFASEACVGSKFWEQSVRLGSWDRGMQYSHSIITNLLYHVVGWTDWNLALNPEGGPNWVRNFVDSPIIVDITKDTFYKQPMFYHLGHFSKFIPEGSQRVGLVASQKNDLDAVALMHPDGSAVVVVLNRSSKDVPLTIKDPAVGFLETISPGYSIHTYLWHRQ
Assay: Fluorogenic substrate (4-MU-β-D-glucoside) enzymatic assay, rhGBA
Type: biochemical
Conditions: for IC50: enzymatic assay performed for 3 h, n=3, read-out: In vitro apparent IC50 rhGBA, 3 h

SMILES | IC50 | increase in inhibitory activity towards GBA of aziridines relative to epoxide analogues (in vitro 3 h)
O[C@@H]1[C@@H](O)[C@H](O)C[C@H]2O[C@@H]12 [compound 1, xylo‐cyclophellitol] | 450 ± 20 nM | 
O[C@@H]1[C@@H](O)[C@H](O)C[C@H]2N[C@@H]12 [compound 2, β‐D‐xylo‐Cyclophellitol aziridine] | 240 ± 30 nM | less than two‐fold increase
